For test [1], the target named is T1, bovine mitochondrial complex I (proton-translocating NADH:ubiquinone oxidoreductase) (Bos taurus, UniProt P03887+P17694+P42026).
T1 construct: gene NDUFS2; with NADH-ubiquinone oxidoreductase chain 3; NADH dehydrogenase [ubiquinone]; 1 alpha subcomplex subunit 9, mitochondrial; NADH-ubiquinone oxidoreductase chain 2; NADH-ubiquinone oxidoreductase chain 4; NADH-ubiquinone oxidoreductase chain 4L; NADH-ubiquinone oxidoreductase chain 5; NADH-ubiquinone oxidoreductase chain 6; NADH-ubiquinone oxidoreductase 75 kDa subunit, mitochondrial; NADH dehydrogenase [ubiquinone] flavoprotein 1, mitochondrial; NADH dehydrogenase [ubiquinone] flavoprotein 2, mitochondrial; NADH dehydrogenase [ubiquinone] iron-sulfur protein 3, mitochondrial; NADH dehydrogenase [ubiquinone] iron-sulfur protein 8, mitochondrial
The test is described as follows: rate constant of D-to-A activation from lag phase of NADH oxidation, SMP. Format: biochemical. The conditions noted are these: D-form of complex I; pH 7.0, SET buffer, no alkali cations; control without EIPA 1.00 ± 0.04 min^-1; 165 μM NADH.

Test [2] has as its target T1, bovine mitochondrial complex I (proton-translocating NADH:ubiquinone oxidoreductase). The test is described as follows: NADH:Q1 oxidoreductase inhibition, SMP, NADH absorbance at […] nm. Format: biochemical. Particulars: neutral pH (7.0; Figure 7 caption gives NADH-oxidase reaction, A-form); SET buffer, 25 °C, 165 μM NADH; 5-7 min preincubation.

T1 sequence (P17694 34-463): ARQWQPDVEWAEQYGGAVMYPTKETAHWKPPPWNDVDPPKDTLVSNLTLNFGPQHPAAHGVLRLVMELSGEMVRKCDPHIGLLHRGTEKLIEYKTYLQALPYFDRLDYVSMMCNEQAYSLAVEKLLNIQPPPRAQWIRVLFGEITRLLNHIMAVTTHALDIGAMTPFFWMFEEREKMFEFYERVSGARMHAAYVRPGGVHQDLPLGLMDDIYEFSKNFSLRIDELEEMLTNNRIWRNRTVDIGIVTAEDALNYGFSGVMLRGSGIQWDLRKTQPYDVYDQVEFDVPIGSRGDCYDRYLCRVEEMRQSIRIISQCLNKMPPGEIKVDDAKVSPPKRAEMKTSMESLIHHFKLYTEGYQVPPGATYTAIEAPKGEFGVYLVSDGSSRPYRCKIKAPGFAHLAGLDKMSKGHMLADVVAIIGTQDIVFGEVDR
T1 sequence (P42026 38-216): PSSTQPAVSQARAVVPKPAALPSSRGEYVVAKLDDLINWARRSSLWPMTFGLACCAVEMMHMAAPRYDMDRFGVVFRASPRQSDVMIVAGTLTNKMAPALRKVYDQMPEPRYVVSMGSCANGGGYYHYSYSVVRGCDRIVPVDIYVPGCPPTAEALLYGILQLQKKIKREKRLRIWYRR
T1 sequence (P03887 whole entry): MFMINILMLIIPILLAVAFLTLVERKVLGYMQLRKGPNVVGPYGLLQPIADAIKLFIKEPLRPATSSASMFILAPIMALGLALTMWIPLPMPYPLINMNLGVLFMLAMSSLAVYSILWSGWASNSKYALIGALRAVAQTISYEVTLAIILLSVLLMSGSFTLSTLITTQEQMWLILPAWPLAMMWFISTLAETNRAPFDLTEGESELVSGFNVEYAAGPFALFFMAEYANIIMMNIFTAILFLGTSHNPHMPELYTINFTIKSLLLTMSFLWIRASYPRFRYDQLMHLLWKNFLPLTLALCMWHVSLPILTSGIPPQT
T1 sequence (P03898 whole entry partner): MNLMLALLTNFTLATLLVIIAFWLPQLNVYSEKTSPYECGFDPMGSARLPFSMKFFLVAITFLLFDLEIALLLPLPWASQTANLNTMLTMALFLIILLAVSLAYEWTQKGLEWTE
T1 sequence (P34943 36-380 partner): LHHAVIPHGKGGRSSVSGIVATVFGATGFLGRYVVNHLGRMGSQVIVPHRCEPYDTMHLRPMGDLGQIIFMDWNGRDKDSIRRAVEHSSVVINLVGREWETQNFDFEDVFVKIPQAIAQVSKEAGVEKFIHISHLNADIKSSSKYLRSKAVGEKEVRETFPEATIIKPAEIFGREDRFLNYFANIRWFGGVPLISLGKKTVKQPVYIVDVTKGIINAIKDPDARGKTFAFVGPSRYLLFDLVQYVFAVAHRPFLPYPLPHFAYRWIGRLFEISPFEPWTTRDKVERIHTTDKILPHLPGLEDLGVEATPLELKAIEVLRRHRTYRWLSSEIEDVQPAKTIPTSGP

As a reminder, the IC50 is the concentration that inhibits the measured activity by half. On to `CCN(c1nc(N)c(C(=O)NC(=N)N)nc1Cl)C(C)C` [EIPA], for which the “kD → A at 20 μM EIPA” value in test [1] is listed as 0.22 ± 0.04 min^− 1. This compound also returned an IC50 in test [2] of approximately 40 µM.
